US20260042764A1, “COMPOSITIONS AND METHODS FOR INHIBITION OF KRAS” (TheRas, Inc., priority 2022, published 2026)

Assays:
GP2d cells (KRAS G12D) = experiment: Cell-based pERK HTRF assay in GP2d cell (Biological Example 2); conditions: GP2d (KRAS G12D) cells
In short: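 Phospho-ERK in lysed cells was detected by HTRF using Eu cryptate and d2 antibodies, read between 4 and 24 h at room temperature. Prior to lysis, KRAS G12D GP2d cells, seeded the day before in DMEM with 10% FBS, were exposed to compounds for 60 min. Compounds were tested as 9-point half-log curves from 1 μM or 100 nM top, with 0.25% DMSO.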

[1] = target: T1, Avi-KRAS G12V (2-169) GTP/RAF1 RBD-3xFLAG (51-131) (Homo sapiens, UniProt P01116, G12V); experiment: Raf1-KRAS G12V-GTP disruption HTRF assay (Biological Example 3); assay type: binding; conditions: KRAS G12V, GTP-loaded
T1 construct: Avi-KRAS G12V (2-169)
T1 sequence (P01116 2-169 isoform P01116-2 G12V): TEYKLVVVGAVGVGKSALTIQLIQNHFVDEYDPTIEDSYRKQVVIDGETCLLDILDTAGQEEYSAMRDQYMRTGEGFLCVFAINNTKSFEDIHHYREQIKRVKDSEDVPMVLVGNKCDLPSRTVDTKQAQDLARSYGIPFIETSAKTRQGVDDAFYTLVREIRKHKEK
In short: (§1)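 HTRF PPI read-out (ex 320 nm, em 615 nm) after 1 h RT incubation with shaking; data as % activity vs DMSO (100%), IC50 from curve fit. Complex 50 nM, RBD reagent 75 nM; compound 30-0.005 μM, 3-fold.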

[2] = target: T2, Avi-KRAS G12C (2-169) GTP/RAF1 RBD-3xFLAG (51-131) (Homo sapiens, UniProt P01116, G12C); experiment: Raf1-KRAS G12C-GTP disruption HTRF assay (Biological Example 3); assay type: binding; conditions: KRAS G12C, GTP-loaded
T2 construct: Avi-KRAS G12C (2-169)
T2 sequence (P01116 2-169 isoform P01116-2 G12C): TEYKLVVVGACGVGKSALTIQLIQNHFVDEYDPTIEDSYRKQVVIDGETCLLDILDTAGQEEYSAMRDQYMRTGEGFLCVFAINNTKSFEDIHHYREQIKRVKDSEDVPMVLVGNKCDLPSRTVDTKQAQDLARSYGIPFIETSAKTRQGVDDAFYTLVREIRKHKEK
In short: as §1

[3] = target: T3, Avi-KRAS G12D (2-169) GTP/RAF1 RBD-3xFLAG (51-131) (Homo sapiens, UniProt P01116, G12D); experiment: Raf1-KRAS G12D-GTP disruption HTRF assay (Biological Example 3); assay type: binding; conditions: KRAS G12D, GTP-loaded
T3 construct: Avi-KRAS G12D (2-169)
T3 sequence (P01116 2-169 isoform P01116-2 G12D): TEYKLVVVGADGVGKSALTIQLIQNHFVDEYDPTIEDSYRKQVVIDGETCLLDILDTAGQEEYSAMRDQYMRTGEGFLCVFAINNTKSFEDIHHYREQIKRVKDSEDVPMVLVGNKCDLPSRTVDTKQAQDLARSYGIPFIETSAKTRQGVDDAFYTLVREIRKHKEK
In short: as §1

[4] = target: T4, Avi-KRAS WT (2-169) GTP/RAF1 RBD-3xFLAG (51-131) (Homo sapiens, UniProt P01116); experiment: Raf1-KRAS WT-GTP disruption HTRF assay (Biological Example 3); assay type: binding; conditions: KRAS WT, GTP-loaded
T4 construct: Avi-KRAS WT (2-169)
T4 sequence (P01116 2-169 isoform P01116-2): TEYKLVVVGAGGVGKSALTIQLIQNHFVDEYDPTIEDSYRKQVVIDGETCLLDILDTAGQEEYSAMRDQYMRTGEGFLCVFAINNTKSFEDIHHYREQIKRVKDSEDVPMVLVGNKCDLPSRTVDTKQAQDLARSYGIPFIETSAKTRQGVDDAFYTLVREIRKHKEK
In short: as §1

SW620 cells (KRAS G12V) = experiment: Cell-based pERK HTRF assay in SW620 cell (Biological Example 4)
In short: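 SW620 cells were treated for 4 h with compound in a 9-point half-log series from 1 μM top (0.25% DMSO), then lysed. Phospho-ERK was detected by HTRF with d2 and Eu cryptate antibodies after 4–24 h at room temperature, read at 615 nm emission.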

[5] = Homo sapiens, SW-620, SW620 (KRAS G12V) cells

| IC50 (GP2d cells (KRAS G12D); GP2d) [nM] | IC50 [1] [nM] | IC50 [2] [nM] | IC50 [3] [nM] | IC50 [4] [nM] | IC50 (SW620 cells (KRAS G12V); [5]) [nM] | IC50 (GP2d cells (KRAS G12D)) [nM] | IC50 (SW620 cells (KRAS G12V); SW620 (KRAS G12V) cells) [nM] | SMILES |
| --- | --- | --- | --- | --- | --- | --- | --- | --- |
| < 100 | 100 to 1000 | 100 to 1000 | 100 to 1000 | 100 to 1000 | < 100 |  |  | CCN(c1nc(OC[C@@]23CCCN2C[C@H](F)C3)nc2c(F)c(-c3ccc(F)c4sc(N)c(C#N)c34)c(C(F)(F)F)cc12)[C@H]1CCN(C(=O)C2C[C@H]2F)[C@@H]1C (stereo partly drawn) [Compound 874] |
| < 100 | 100 to 1000 | 100 to 1000 | 1000 to 10000 | 1000 to 10000 | < 100 |  |  | CCN(c1nc(OC[C@@]23CCCN2C[C@H](F)C3)nc2c(F)c(-c3ccc(F)c4sc(N)c(C#N)c34)c(C(F)(F)F)cc12)[C@H]1C[C@H](COC)N(C(=O)N2CC(F)C2)C1 [Compound 875] |
| < 100 | 1000 to 10000 | 1000 to 10000 | 100 to 1000 | 1000 to 10000 | < 100 |  |  | CCN(c1nc(OC[C@@]23CCCN2C[C@H](F)C3)nc2c(F)c(-c3ccc(F)c4sc(N)c(C#N)c34)c(C(F)(F)F)cc12)[C@H]1C[C@@H](C)N(C(=O)C2CC2(F)F)C1 (stereo partly drawn) [Compound 877] |
| < 100 | 100 to 1000 | 100 to 1000 | 100 to 1000 | 100 to 1000 | < 100 |  |  | CCN(c1nc(OC[C@@]23CCCN2C[C@H](F)C3)nc2c(F)c(-c3ccc(F)c4sc(N)c(C#N)c34)c(C(F)(F)F)cc12)[C@H]1C[C@H](C)N(C(=O)C2CC2(F)F)C1 (stereo partly drawn) [Compound 881] |
| < 100 | 100 to 1000 | 100 to 1000 | 100 to 1000 | 100 to 1000 | < 100 |  |  | CCN(c1nc(OC[C@@]23CCCN2C[C@H](F)C3)nc2c(F)c(-c3ccc(F)c4sc(N)c(C#N)c34)c(C(F)(F)F)cc12)[C@H]1CCN(C(=O)C2C[C@@H]2F)[C@@H]1C (stereo partly drawn) [Compound 883] |
| < 100 | ≤ 100 | ≤ 100 | 100 to 1000 | 100 to 1000 | < 100 |  |  | CCN(c1nc(OC[C@@]23CCCN2C[C@H](F)C3)nc2c(F)c(-c3ccc(F)c4sc(N)c(C#N)c34)c(C(F)(F)F)cc12)[C@H]1C[C@H](C)N(C(=O)C2C[C@H]2F)C1 (stereo partly drawn) [Compound 884] |
| < 100 | ≤ 100 | ≤ 100 | 100 to 1000 | 100 to 1000 | < 100 |  |  | CCN(c1nc(OC[C@@]23CCCN2C[C@H](F)C3)nc2c(F)c(-c3ccc(F)c4sc(N)c(C#N)c34)c(C(F)(F)F)cc12)[C@H]1C[C@H](C)N(C(=O)C2C[C@@H]2F)C1 (stereo partly drawn) [Compound 886] |
| < 100 | 100 to 1000 | 100 to 1000 | 100 to 1000 | 1000 to 10000 | < 100 |  |  | CCN(c1nc(OC[C@@]23CCCN2C[C@H](F)C3)nc2c(F)c(-c3ccc(F)c4sc(N)c(C#N)c34)c(C(F)(F)F)cc12)[C@H]1C[C@@H](C)N(C(=O)OC2CC(OC)C2)C1 (stereo partly drawn) [Compound 895] |
| < 100 | ≤ 100 | ≤ 100 | ≤ 100 | 100 to 1000 | < 100 |  |  | CCN(c1nc(OC[C@@]23CCCN2C[C@H](F)C3)nc2c(F)c(-c3ccc(F)c4sc(N)c(C#N)c34)c(C(F)(F)F)cc12)C1CCN(C(=O)C2CC2)C1 (stereo partly drawn) [Compound 903] |
| < 100 | 100 to 1000 | 100 to 1000 | 100 to 1000 | 100 to 1000 | < 100 |  |  | CCN(c1nc(OC[C@@]23CCCN2C[C@H](F)C3)nc2c(F)c(-c3ccc(F)c4sc(N)c(C#N)c34)c(C(F)(F)F)cc12)[C@H]1C[C@H](C)N(C(=O)OC2CC(OC)C2)C1 (stereo partly drawn) [Compound 907] |
|  | 100 to 1000 | 100 to 1000 | 100 to 1000 | 100 to 1000 |  | < 100 | < 100 | CCN(c1nc(OC[C@@]23CCCN2C[C@H](F)C3)nc2c(F)c(-c3ccc(F)c4sc(N)c(C#N)c34)c(C(F)(F)F)cc12)C1C[C@H](C)N(C(=O)C2CC2)C1 (stereo partly drawn) [Compound 909] |
| < 100 | 100 to 1000 | 100 to 1000 | 100 to 1000 | 100 to 1000 | < 100 |  |  | CCN(c1nc(OC[C@@]23CCCN2C[C@H](F)C3)nc2c(F)c(-c3ccc(F)c4sc(N)c(C#N)c34)c(C(F)(F)F)cc12)[C@H]1C[C@H](C)N(C(=O)C2CC(OC)C2)C1 (stereo partly drawn) [Compound 928] |

Continued, molecule first:

| SMILES | IC50 (GP2d cells (KRAS G12D); GP2d) [nM] | IC50 [1] [nM] | IC50 [2] [nM] | IC50 [3] [nM] | IC50 [4] [nM] | IC50 (SW620 cells (KRAS G12V); [5]) [nM] | IC50 (GP2d cells (KRAS G12D)) [nM] | IC50 (SW620 cells (KRAS G12V); SW620 (KRAS G12V) cells) [nM] |
| --- | --- | --- | --- | --- | --- | --- | --- | --- |
| CCN(c1nc(OC[C@@H]2C[C@@H](OC)CN2C)nc2c(F)c(-c3ccc(F)c4sc(N)c(C#N)c34)c(C(F)(F)F)cc12)[C@H]1CCN(C(=O)OC)C1 [Compound 871] | < 100 | 1000 to 10000 | 1000 to 10000 | 100 to 1000 | 1000 to 10000 | < 100 |  |  |
| CCN(c1nc(OC[C@@]23CCCN2C[C@H](F)C3)nc2c(F)c(-c3ccc(F)c4sc(N)c(C#N)c34)c(C(F)(F)F)cc12)[C@H]1CCN(C(=O)C2CC2(F)F)[C@@H]1C (stereo partly drawn) [Compound 888] | < 100 | 100 to 1000 | 100 to 1000 | 100 to 1000 | 100 to 1000 | < 100 |  |  |
| CCN(c1nc(OC[C@@]23CCCN2C[C@H](F)C3)nc2c(F)c(-c3ccc(F)c4sc(N)c(C#N)c34)c(C(F)(F)F)cc12)[C@H]1CCN(C(=O)OC2CC(OC)C2)[C@@H]1C (stereo partly drawn) [Compound 897] | < 100 | 100 to 1000 | 100 to 1000 | 100 to 1000 | 100 to 1000 | < 100 |  |  |
| CN(Cc1cnco1)c1nc(OC[C@@]23CCCN2C[C@H](F)C3)nc2c(F)c(-c3ccc(F)c4sc(N)c(C#N)c34)c(C(F)(F)F)cc12 [Compound 908] | < 100 | 1000 to 10000 | 1000 to 10000 | 100 to 1000 | 1000 to 10000 | < 100 |  |  |
| CCN(c1nc(OCC23CCCN2CC(F)C3)nc2c(F)c(-c3ccc(F)c4sc(N)c(C#N)c34)c(C(F)(F)F)cc12)C1CCN(C(=O)c2ccc(Cl)s2)C1 (stereo not drawn) [Compound 929] |  | 100 to 1000 | 100 to 1000 | 100 to 1000 | 100 to 1000 |  | < 100 | < 100 |
| CCN(c1nc(OCC23CCCN2CC(F)C3)nc2c(F)c(-c3ccc(F)c4sc(N)c(C#N)c34)c(C(F)(F)F)cc12)C1CCN(C(=O)c2nc(C)ns2)C1 (stereo not drawn) [Compound 932] | < 100 | 1000 to 10000 | 100 to 1000 | 100 to 1000 | 1000 to 10000 | < 100 |  |  |
| CCN(c1nc(OCC23CCCN2CC(F)C3)nc2c(F)c(-c3ccc(F)c4sc(N)c(C#N)c34)c(C(F)(F)F)cc12)C(C)c1cccnc1 (stereo not drawn) [Compound 933] | < 100 | > 10000 | > 10000 | 1000 to 10000 | > 10000 | < 100 |  |  |
| N#Cc1c(N)sc2c(F)ccc(-c3c(C(F)(F)F)cc4c(N5CCc6ccncc6C5)nc(OC[C@@]56CCCN5C[C@H](F)C6)nc4c3F)c12 [Compound 942] | < 100 | > 10000 | > 10000 | > 10000 | > 10000 | 100 to 1000 |  |  |
